Source: patent US20260263376A1, “THERAPEUTIC DELIVERY VECTORS COMPRISING AMPHIPHILIC BLOCK COPOLYMERS” (Swansea University, priority 2023, published 2026)

Key:
OVCAR-3 WT = test: Endocytosis elucidation with chemical inhibitors prior to NP(DiD) treatment, flow cytometry; format: cell-based; settings: inhibitor before NP treatment
Experimental: (§1) FIG. 19 NP(DiD) uptake following 24 h exposure in OVCAR-3 (a) and SKOV-3 (b). Uptake quantification measured using corrected total cell fluorescence method and plotted for 24 (c), 48 (d) and 72 h (e) NP(DiD) treatments. Endocytosis elucidation conducted using chemical inhibitors, prior to NP(DiD) treatments and cells analyzed using flow cytometry. Example of cell population positive for NP8 in SKOV-3 WT (f) and endocytosis pathway distribution graphs for OVCAR-3 WT (g) and SKOV-3 (h).
Internalization and quantification of nanoparticles was characterized using fluorescently labelled nanoparticles, Vybrant DiD™ loaded particles were fabricated (co-dissolution as previously described) followed by spin filtration to remove non-encapsulated dye. 2D Cell cultures were treated with NP(DiD) for 24, 48 and 72 h. 426 Cells were co-stained for nuclei using 16.2 μM Hoescht. Cells were imaged using CLSM or quantified following detachment using CellStream (A2 for DAPI channel, 428 B6 for DiD channel). Corrected total cell fluorescence (CTCF) was calculated.[36] Microtissue penetration was conducted using the same fluorescently labelled NPs. […] Uptake thresholding into binary high and low uptake conditions was conducted using quantification histograms and manual identification of population peaks.

SKOV-3 WT = test: as above; format: cell-based; settings: inhibitor before NP treatment
Experimental: as §1
Internalization and quantification of nanoparticles was characterized using fluorescently labelled nanoparticles, Vybrant DiD™ loaded particles were fabricated (co-dissolution as previously described) followed by spin filtration to remove non-encapsulated dye. 2D Cell cultures were treated with NP(DiD) for 24, 48 and 72 h. […] Corrected total cell fluorescence (CTCF) was calculated.[36] Microtissue penetration was conducted using the same fluorescently labelled NPs. Spheroids (2×10^3 cells) were seeded 48 h prior to use, 10 spheroids per NP were treated for 24 h with 20 μL stock NP(DiD).[37] […] Data was visualized using MATLAB code form CellStream exports to create violin plots of total populations. […] Nanoparticle, cell counter staining and imaging all conducted as described above. Uptake thresholding into binary high and low uptake conditions was conducted using quantification histograms and manual identification of population peaks.

NAV 2729
drop in fluorescence (OVCAR-3 WT): 90% | drop in fluorescence (SKOV-3 WT): 90%

CCN(CC)CCCC(C)Nc1ccnc2cc(Cl)ccc12 (stereo not shown) [chloroquine]
increase in cell population positive for NPs (SKOV-3 WT): 3% | increase in mean florescence (SKOV-3 WT): 3×10^5
